Molecules are shown by their SMILES. pIC50: −log10 of the molar value. Where only a bound is given, the exact number is not on record here.

The source of these data is ChEMBL document CHEMBL4483862, “Open-source discovery of chemical leads for next-generation chemoprotective antimalarials” (2018).

The subject of the assay is Plasmodium berghei. The assay can be described thus: Luciferase/luciferin-expressing antifolate-resistant parasites were used to infect a culture of HepG2 cells that were pre-incubated with compounds. Infected hepatocytes emit light due to the luciferase reaction. Assay results are presented as the percent inhibition of light emission compared to control. […]. The format is functional. The conditions noted are these: sporozoite; for IC90: read-out: LUCIFERASE INFECTION ASSAY - IC90.

Where [1] appears, read: read-out: LUCIFERASE INFECTION ASSAY - IC50.

Usually pIC50 stands for the negative decadic logarithm of the IC50, by convention in mol/L. By IC90 is commonly meant the concentration at which the effect reaches the 90% level. `CC(C)S(=O)(=O)c1cnc(N2CCCCC2)nc1N`: the IC90 is above 11.6 µM. Further, the pIC50 under setting [1] was below 4.94.
For `Cc1ccc(C(C)CCN2CCC3(CC2)C(=O)N(CCCc2ccncc2)C(=O)N3CCC(C)C)o1` (stereo unspecified), the IC90 is above 6.67 µM. In addition, the pIC50 (PBLUC_HILL_SLOPE 13.4, PBLUC_R_SQUARED 0.376, read-out: LUCIFERASE INFECTION ASSAY - IC50) was 5.19.
As for `COc1ccc2c3c(cccc13)C(=O)N(c1nc3ccccc3n1C)C2=O`, the IC90 is above 9.23 µM. Also, the pIC50 under setting [1] was below 5.03.
As for `Cc1ccc(C(=O)Nc2nc3ccccn3c2C(=O)NC(C)C)cc1`, the IC90 was above 9.81 µM. Also, the pIC50 (PBLUC_HILL_SLOPE 15.2, PBLUC_R_SQUARED 0.478, read-out: LUCIFERASE INFECTION ASSAY - IC50) was 5.07.
`CN(Cc1ccc2c(c1)OCO2)c1ccc(C(=O)NC2CC2)cn1`: the IC90 was above 10 µM. Further, the pIC50 (PBLUC_HILL_SLOPE 3.82, PBLUC_R_SQUARED 0.17, read-out: LUCIFERASE INFECTION ASSAY - IC50) was 5.17.
Turning to `CCCCNC(=O)c1c(NC(=O)c2cccc(F)c2F)nc2ccccn12`, the IC90 is above 8.86 µM. Further, the pIC50 under setting [1] was below 5.05.
Take `CC1CC(C)CN(C2=CC(=[N+]3CCCC3)CC(C)(C)C2)C1` (stereo unspecified): the IC90 amounted to 2.02 µM. In addition, the pIC50 (HEPG2TOX_HILL_SLOPE 0.983, HEPG2TOX_R_SQUARED 0.985, PBLUC_HILL_SLOPE 2.02, PBLUC_R_SQUARED 0.664, read-out: LUCIFERASE INFECTION ASSAY - IC50) was 6.17.
Regarding `Clc1cccc(-c2cc3[nH]c(NCc4ccccc4)nc3cn2)c1`, the IC90 is above 10 µM. Besides, the pIC50 under setting [1] was below 5.00.
In the case of `N#CCCNS(=O)(=O)c1ccc(C(=O)Nc2ccc(Nc3ccccc3)cc2)cc1`, the IC90 was found to be 3.71 µM. In addition, the pIC50 (HEPG2TOX_HILL_SLOPE 10.9, HEPG2TOX_R_SQUARED 0.158, PBLUC_HILL_SLOPE 11.4, PBLUC_R_SQUARED 0.555, read-out: LUCIFERASE INFECTION ASSAY - IC50) was 5.51.
`COc1ccc(OC)c(S(=O)(=O)Nc2ccc(S(=O)(=O)Nc3cc(C(F)(F)F)cc(C(F)(F)F)c3)cc2)c1`: the IC90 is above 5.65 µM. Besides, the pIC50 under setting [1] is below 5.25.
With `COc1cc(-c2cc(-c3cc4ccccc4s3)cnc2N)cc(OC)c1OC`, the IC90 is above 8.41 µM. Further, where the note is “HEPG2TOX_HILL_SLOPE 0.717, HEPG2TOX_R_SQUARED 0.312, PBLUC_HILL_SLOPE 43.5, PBLUC_R_SQUARED 0.0859, read-out: LUCIFERASE INFECTION ASSAY - IC50”, the pIC50 is 5.08.
On to `O=S(=O)(c1ccc(Br)s1)N1CCC(C(c2ccccc2)c2ccccc2)CC1`, for which the IC90 was above 6.93 µM. Under setting [1], the pIC50 is below 5.16.
Turning to `COc1ccc(Cl)cc1C(=O)NCCC(c1ccccc1)c1ccccc1`, the IC90 was above 8.69 µM. Also, the pIC50 (HEPG2TOX_HILL_SLOPE 6.56, HEPG2TOX_R_SQUARED 0.368, PBLUC_HILL_SLOPE 3.72, PBLUC_R_SQUARED 0.314, read-out: LUCIFERASE INFECTION ASSAY - IC50) is 5.27.
In the case of `Cc1cc(Nc2ccc3c(=O)c(-c4c(F)cccc4Cl)c(C)oc3c2)no1`, the IC90 was above 10 µM. In addition, for the setting “HEPG2TOX_HILL_SLOPE 11.5, HEPG2TOX_R_SQUARED 0.0504, PBLUC_HILL_SLOPE 0.784, PBLUC_R_SQUARED 0.684, read-out: LUCIFERASE INFECTION ASSAY - IC50”, the pIC50 was 5.95.
Regarding `O=C(/C=C/c1ccc(-n2nncc2-c2ccccc2)cc1)c1ccccc1`, the IC90 was above 10 µM. Moreover, the pIC50 (HEPG2TOX_HILL_SLOPE 8.1, HEPG2TOX_R_SQUARED 0.474, PBLUC_HILL_SLOPE 4.46, PBLUC_R_SQUARED 0.811, read-out: LUCIFERASE INFECTION ASSAY - IC50) is 5.17.
On to `Cc1ccc2nc3ccccc3c(N3CCN(C(=O)c4ccccc4)CC3)c2c1`, for which the IC90 was found to be 3.42 µM. The pIC50 (PBLUC_HILL_SLOPE 1, PBLUC_R_SQUARED 0.729, read-out: LUCIFERASE INFECTION ASSAY - IC50) was 6.42.
With `O=C(CN1CCN(C(=O)CCc2cnn(-c3ccccc3)c2)CC1)NC1CC1`, the IC90 is above 10 µM. For the same compound, the pIC50 under setting [1] is below 5.00.
As for `CCOC(=O)/C=C/C(=O)OCC(=O)c1ccc(C2CCCCC2)cc1`, the IC90 is above 10 µM. Also, the pIC50 (HEPG2TOX_HILL_SLOPE 7.18, HEPG2TOX_R_SQUARED 0.791, read-out: LUCIFERASE INFECTION ASSAY - IC50) is below 5.00.
`COc1ccc(Cn2nc(C(=O)NC3CCCC3)c3c2CCN(C(=O)c2cc4ccccc4o2)C3)cc1`: the IC90 was above 6.62 µM. The pIC50 (PBLUC_HILL_SLOPE 3.73, PBLUC_R_SQUARED 0.19, read-out: LUCIFERASE INFECTION ASSAY - IC50) is 5.35.
Regarding `CSc1cc(-c2sc3scc(C)c3c2C)n[nH]1`, the IC90 was above 11.8 µM. For the same compound, the pIC50 under setting [1] is below 4.93.
For the compound `Cc1ccc2oc(-c3ccc(C(C)(C)C)cc3)nc2c1`, the IC90 was found to be 5.53 µM. For the same compound, the pIC50 (FFLUC_HILL_SLOPE 3.61, FFLUC_R_SQUARED 0.123, HEPG2TOX_HILL_SLOPE 7.09, HEPG2TOX_R_SQUARED 0.0328, PBLUC_HILL_SLOPE 0.728, PBLUC_R_SQUARED 0.843, read-out: LUCIFERASE INFECTION ASSAY - IC50) was 6.57.
Consider `Cc1cc2oc(=O)cc(Cn3cnc([N+](=O)[O-])c3)c2cc1C`, for which the IC90 is above 10 µM. In addition, where the note is “PBLUC_HILL_SLOPE 0.353, PBLUC_R_SQUARED 0.0201, read-out: LUCIFERASE INFECTION ASSAY - IC50”, the pIC50 is below 5.00.
`Cc1cc(Br)ccc1OCC(=O)NC(C)c1ccccc1` (stereo unspecified): the IC90 was above 9.48 µM. Under “HEPG2TOX_HILL_SLOPE 4.44, HEPG2TOX_R_SQUARED 0.285, read-out: LUCIFERASE INFECTION ASSAY - IC50”, the pIC50 was below 5.02.
Regarding `O=C1C(=O)N(CCN2CCOCC2)c2ccc(F)cc21`, the IC90 is above 11.9 µM. The pIC50 (PBLUC_HILL_SLOPE 4.75, PBLUC_R_SQUARED 0.191, read-out: LUCIFERASE INFECTION ASSAY - IC50) was 4.96.
As to `Cc1c(C(=O)C(F)(F)F)c(-c2nn(-c3ccccc3)c(NC(=O)C(F)(F)F)c2C(=O)C(F)(F)F)c(C)n1-c1ccc(Br)cc1`, the IC90 was above 10 µM. Also, the pIC50 (FFLUC_HILL_SLOPE 15.1, FFLUC_R_SQUARED 0.397, PBLUC_HILL_SLOPE 2.07, PBLUC_R_SQUARED 0.0694, read-out: LUCIFERASE INFECTION ASSAY - IC50) is 5.18.
Consider `COc1ccc(CCN2CSC(=S)N(CCc3ccc(OC)c(OC)c3)C2)cc1OC`, for which the IC90 is above 7.13 µM. The negative-log IC50 (pIC50) under setting [1] was below 5.15.
For the compound `Cc1ccc(C)c(S(=O)(=O)N(Cc2nnc(-c3ccc(Cl)cc3)o2)c2cccc(C(F)(F)F)c2)c1`, the IC90 was above 10 µM. Also, under setting [1], the pIC50 was below 5.00.
For `COc1cccc(-c2cn3c(-c4ccc(C(=O)NC5CC5)cc4)cnc3cn2)c1F`, the IC90 was 7.93 µM. Moreover, where the note is “PBLUC_HILL_SLOPE 10.9, PBLUC_R_SQUARED 0.72, read-out: LUCIFERASE INFECTION ASSAY - IC50”, the negative logarithm of the IC50 (pIC50) was 5.19.
For `COc1ccc(C(c2ccc(N(C)C)cc2)c2ccc(N(C)C)cc2)c(C)c1C`, the IC90 is above 8.49 µM. Further, the pIC50 under setting [1] was below 5.07.
On to `Oc1c(C(Nc2ccccn2)c2ccc(Cl)cc2Cl)ccc2cccnc12` (stereo unspecified), for which the IC90 is 5.13 µM. Further, the negative-log IC50 (pIC50) (FFLUC_HILL_SLOPE 3.3, FFLUC_R_SQUARED 0.0348, HEPG2TOX_HILL_SLOPE 1.34, HEPG2TOX_R_SQUARED 0.812, PBLUC_HILL_SLOPE 6.8, PBLUC_R_SQUARED 0.449, read-out: LUCIFERASE INFECTION ASSAY - IC50) is 5.43.
For `COc1ccc(-c2cc(-c3cccc(NS(C)(=O)=O)c3)cnc2N)c(OC)c1`, the IC90 came out at 4.29 µM. For the same compound, the pIC50 (HEPG2TOX_HILL_SLOPE 1.15, HEPG2TOX_R_SQUARED 0.874, PBLUC_HILL_SLOPE 1.81, PBLUC_R_SQUARED 0.713, read-out: LUCIFERASE INFECTION ASSAY - IC50) was 5.90.
Regarding `CCCCNC(=O)c1c(NC(=O)c2cccc(OC)c2)nc2ccc(C)cn12`, the IC90 came to 3.2 µM. In addition, the pIC50 under setting [1] is 5.55.
Turning to `CCc1cc(-c2n[nH]cc2-c2ccc3c(c2)OCCO3)c(O)cc1OC`, the IC90 was 1.59 µM. Besides, for the setting “HEPG2TOX_HILL_SLOPE 1.05, HEPG2TOX_R_SQUARED 0.928, PBLUC_HILL_SLOPE 1.82, PBLUC_R_SQUARED 0.694, read-out: LUCIFERASE INFECTION ASSAY - IC50”, the pIC50 is 6.32.
`O=C(/C(=N/Nc1ccc(OC(F)(F)F)cc1)C(=O)C(F)(F)F)c1cccs1`: the IC90 is above 8.04 µM. For the same compound, the pIC50 (PBLUC_HILL_SLOPE 12.2, PBLUC_R_SQUARED 0.21, read-out: LUCIFERASE INFECTION ASSAY - IC50) is 5.12.
As to `O=C(CSc1ccccc1[N+](=O)[O-])NNC(=S)NC1CC2C=CC1C2` (stereo unspecified), the IC90 is above 8.72 µM. Further, the pIC50 under setting [1] is below 5.06.
Regarding `O=C(Cn1ncc(Cl)c(Cl)c1=O)N(Cc1cccs1)c1ccc2c(c1)OCCO2`, the IC90 is above 10 µM. Also, under “PBLUC_HILL_SLOPE 8.55, 0.379, PBLUC_R_SQUARED 0.113, 0.341, read-out: LUCIFERASE INFECTION ASSAY - IC50”, the pIC50 was 5.20.
With `CCc1ccc(NC(=O)CN(c2cccc3ccccc23)S(=O)(=O)c2ccc(C)c(C)c2)cc1`, the IC90 is above 10 µM. Moreover, where the note is “FFLUC_HILL_SLOPE 1.69, FFLUC_R_SQUARED 0.486, read-out: LUCIFERASE INFECTION ASSAY - IC50”, the pIC50 was below 5.00.
Regarding `Cc1ccc(SC(=O)c2c(C)noc2-c2ccc(Cl)cc2)cc1`, the IC90 is above 9.6 µM. In addition, for the setting “HEPG2TOX_HILL_SLOPE 11.7, HEPG2TOX_R_SQUARED 0.856, PBLUC_HILL_SLOPE 3.58, PBLUC_R_SQUARED 0.522, read-out: LUCIFERASE INFECTION ASSAY - IC50”, the pIC50 is 5.12.
